Measured values reported in article PMC6202177 (Nature chemical biology, 2018).

Tests used:
[1] = target: H2-D^d/TAPBPR (MHC-I/TAPBPR) (Mus musculus, UniProt P01900); test: Thermodynamic cycle step 4: peptide binding to MHC-I/TAPBPR; design: species or system murine H2-D^d, human β2m; conditions: Fig. 6 mechanism, in words
[2] = target: peptide-deficient H2-D^d/hβ2m/TAPBPR (Mus musculus, UniProt P01900); test: Fluorescence anisotropy competition with TAMRA-P18-I10; assay type: binding, murine H2-D^d, human β2m; conditions: negative control peptide, in words
[3] = target: biotinylated TAPBPR (UniProt Q9BX59); test: SPR
[4] = target: peptide-deficient H2-D^d/hβ2m/TAPBPR complex (murine | human | not stated); test: fluorescence polarisation
[5] = test system: […]/HLA-B*27:02/hβ2m; test: SEC binding of TAPBPR; design: species or system human
[6] = test system: P18-I10/H2-D^d; test: SEC binding of TAPBPR; design: species or system murine H2-D^d; conditions: fully-loaded P18-I10/H2-D^d, in words
[7] = test system: peptide-deficient H2-D^d; test: SEC binding of TAPBPR; design: species or system murine H2-D^d; conditions: in words
[8] = test system: […]/HLA-A*01:01/hβ2m; test: NMR binding of TAPBPR; design: species or system human
[9] = test system: P18-I10/H2-D^d/hβ2m; test: NMR titration and line shape analysis of TAPBPR onto P18-I10/H2-D^d/hβ2m; assay type: binding, murine H2-D^d, human β2m; conditions: slow exchange on the chemical shift timescale, in words
[10] = test system: […]/HLA-B*15:01/hβ2m; test: SEC binding of TAPBPR; design: species or system human
[11] = test system: RGPGC/H2-D^d S73C; test: SEC binding of TAPBPR; design: species or system murine H2-D^d; conditions: partially loaded RGPGC/H2-D^d S73C, in words
[12] = target: peptide-deficient H2-D^d/hβ2m/TAPBPR complex (murine | human | not stated); test: NMR titration
[13] = target: P18-I10/H2-D^d/hβ2m (murine | human | HIV); test: NMR titration

## FVTI
[1]
  affinity class of peptide: low-affinity
[2]
  stability and exchange in the DSF and FA assays: minimal stability and exchange

## H2-D^(d S73C)/β2m (complex)
[3]
  koff: < 0.002 s⁻¹

## P18-I10 peptide
[4]
  K2′: 0.186 µM
  Kd: 0.09 µM

## TAPBPR: molecular chaperone, TAP-binding protein related; luminal domain expressed in Drosophila S2 cells
[5]; 80 μM pMHC-I, 160 μM TAPBPR, room temperature 1 hour, HLA-B*27:02
  TAPBPR binding (SEC): No TAPBPR binding could be detected
[5]; HLA-B*27:02, inferred from lack of detectable binding (≫)
  koff implied if an interaction exists: > 3 s⁻¹
[6]
  TAPBPR binding (SEC): high-affinity complex
[7]
  TAPBPR binding (SEC): high-affinity complex
[8]; 200 µM pMHC-I, two-fold molar excess TAPBPR, HLA-A*01:01
  TAPBPR binding (NMR): No TAPBPR binding could be detected
[8]; HLA-A*01:01, inferred from lack of detectable binding (≫)
  koff implied if an interaction exists: > 3 s⁻¹
[9]
  TAPBPR binding to pMHC-I by NMR: tight complex
[10]; 80 μM pMHC-I, 160 μM TAPBPR, room temperature 1 hour, HLA-B*15:01
  TAPBPR binding (SEC): No TAPBPR binding could be detected
[10]; HLA-B*15:01, inferred from lack of detectable binding (≫)
  koff implied if an interaction exists: > 3 s⁻¹
[11]
  TAPBPR binding (SEC): high-affinity complex

## ^13C labeled P18-I10 (peptide)
[12]
  Kd: < 7.2 µM
  koff: < 80 s⁻¹

B1: TAPBPR (TAP-binding protein related), luminal domain (domain or fragment)
chain: KPHPAEGQWRAVDVVLDCFLAKDGAHRGALASSEDRARASLVLKQVPVLDDGSLEDFTDFQGGTLAQDDPPIIFEASVDLVQIPQAEALLHADCSGKEVTCEISRYFLQMTETTVKTAAWFMANMQVSGGGPSISLVMKTPRVTKNEALWHPTLNLPLSPQGTVRTAVEFQVMTQTQSLSFLLGSSASLDCGFSMAPGLDLISVEWRLQHKGRGQLVYSWTAGQGQAVRKGATLEPAQLGMARDASLTLPGLTIQDEGTYICQITTSLYRAQQIIQLNIQASPKVRLSLANEALLPTLICDIAGYYPLDVVVTWTREELGGSPAQVSGASFSSLRQSVAGTYSISSSLTAEPGSAGATYTCQVTHISLEEPLGASTQVVPPERR
[13]
  Kd: 32 µM
